PubChem BioAssay AID330 (DTP/NCI, 2004)
Values joined by “and” are separate entries in the source; they are usually repeats but may differ in a detail not shown here. Identical values can stand only once. Toxic doses and inconclusive results are not listed.

Test system: P388 leukemia ip, CD2F1 mice, survival T/C
Assay: NCI In Vivo Anticancer Drug Screen. Data for tumor model P388 Leukemia (intraperitoneal) in CD2F1 (CDF1) mice
Conditions: endpoint: median survival time, higher = longer survival
How it was run: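 Mice carrying the transplanted tumor received test compound or vehicle. Survival was recorded in each group, and the value is the treated-group measurement divided by that of the vehicle-treated control group.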

[1] = dose: 50.0 mg/kg/injection, schedule: Q01DX005 (ip), vehicle: saline with Tween-80
[2] = dose: 50.0 mg/kg/injection, schedule: Q01DX005 (ip), vehicle: Klucel (hydroxypropylcellulose) (HPC)
[3] = dose: 50.0 mg/kg/injection, schedule: Q01DX009 (ip), vehicle: saline with Tween-80
[4] = dose: 100.0 mg/kg/injection, schedule: Q01DX009 (ip), vehicle: saline with Tween-80
[5] = dose: 200.0 mg/kg/injection, schedule: Q01DX009 (ip), vehicle: saline with Tween-80
[6] = dose: 100.0 mg/kg/injection, schedule: Q04DX002 (ip), vehicle: saline with Tween-80
[7] = dose: 200.0 mg/kg/injection, schedule: Q04DX002 (ip), vehicle: saline with Tween-80

`COc1cc(/C=C2\NC(=S)N(c3ccccc3)C2=O)ccc1O` was tested, and the T/C [1] was 100 % of control and 109 % of control, the T/C (dose: 100.0 mg/kg/injection, schedule: Q01DX005 (ip), vehicle: saline with Tween-80) was 100 % of control and 101 % of control and 86 % of control and the T/C (dose: 200.0 mg/kg/injection, schedule: Q01DX005 (ip), vehicle: saline with Tween-80) was 100 % of control and 101 % of control and 86 % of control. The T/C (dose: 400.0 mg/kg/injection, schedule: Q01DX005 (ip), vehicle: saline with Tween-80) was 99 % of control and 100 % of control and 104 % of control.
For `O=C1C=CC(=O)C(c2ccccc2)=C1`, the T/C [2] was 100 % of control, the T/C (dose: 100.0 mg/kg/injection, schedule: Q01DX005 (ip), vehicle: Klucel (hydroxypropylcellulose) (HPC)) was 105 % of control and the T/C (dose: 200.0 mg/kg/injection, schedule: Q01DX005 (ip), vehicle: Klucel (hydroxypropylcellulose) (HPC)) was 112 % of control.
With `[O-][n+]1ccccc1C(O)CSc1ccccc1` (configuration not stated) the T/C [3] was 100 % of control, the T/C [4] was 101 % of control and the T/C [5] was 100 % of control.
For `N=c1c2ccccc2nc2n1CCCCC2`, the T/C (dose: 25.0 mg/kg/injection, schedule: Q04DX003 (ip), vehicle: saline) was 103 % of control and the T/C (dose: 50.0 mg/kg/injection, schedule: Q04DX003 (ip), vehicle: saline) was 95 % of control.
In the case of `COc1ccc(-c2c(N)cnc(C(=O)O)c2C)c(OCc2ccccc2)c1OC`, the T/C (dose: 12.5 mg/kg/injection, schedule: Q01DX009 (ip), vehicle: other) is reported as 108 % of control, the T/C (dose: 25.0 mg/kg/injection, schedule: Q01DX009 (ip), vehicle: other) is reported as 105 % of control and the T/C (dose: 50.0 mg/kg/injection, schedule: Q01DX009 (ip), vehicle: other) is reported as 102 % of control. For the same molecule, the T/C (dose: 100.0 mg/kg/injection, schedule: Q01DX009 (ip), vehicle: other) was 97 % of control and the T/C (dose: 200.0 mg/kg/injection, schedule: Q01DX009 (ip), vehicle: other) was 99 % of control.
`CN(C)c1ccc(N=Nc2ccc3ccc4cccc5ccc2c3c45)cc1` was tested, and the T/C [3] was 93 % of control, the T/C [4] was 89 % of control and the T/C [5] was 102 % of control.
With `c1ccc(C(Nc2nncs2)Nc2nncs2)cc1` the T/C (dose: 30.0 mg/kg/injection, schedule: Q01DX005 (ip), vehicle: saline with Tween-80) was 99 % of control, the T/C (dose: 60.0 mg/kg/injection, schedule: Q01DX005 (ip), vehicle: saline with Tween-80) was 100 % of control and 112 % of control and the T/C (dose: 120.0 mg/kg/injection, schedule: Q01DX005 (ip), vehicle: saline with Tween-80) was 117 % of control. For the same molecule, the T/C (dose: 240.0 mg/kg/injection, schedule: Q01DX005 (ip), vehicle: saline with Tween-80) was 157 % of control and 164 % of control.
`CC(O)[C@H]1CC[C@H]2[C@@H]3CC(=O)[C@H]4C[C@H](O)[C@H](O)C[C@]4(C)[C@H]3CC[C@]12C` (some centres not stated) was tested, and the T/C [6] was 91 % of control, the T/C [7] was 90 % of control and the T/C (dose: 400.0 mg/kg/injection, schedule: Q04DX002 (ip), vehicle: saline with Tween-80) was 90 % of control.
With `CCCCCC(O)/C=C/[C@H]1C(O)CC2OC(CSCCC(=O)O)C[C@@H]21` (some centres not stated) the T/C [6] was 103 % of control and the T/C [7] was 96 % of control.
In the case of `N=C(N)n1c(N)nc2ccccc2c1=O`, the T/C (dose: 12.0 mg/kg/injection, schedule: Q01DX005 (ip), vehicle: Klucel (hydroxypropylcellulose) (HPC)) is reported as 108 % of control, the T/C (dose: 12.5 mg/kg/injection, schedule: Q01DX005 (ip), vehicle: saline with Tween-80) is reported as 100 % of control and the T/C (dose: 25.0 mg/kg/injection, schedule: Q01DX005 (ip), vehicle: Klucel (hydroxypropylcellulose) (HPC)) is reported as 101 % of control. For the same molecule, the T/C (dose: 25.0 mg/kg/injection, schedule: Q01DX005 (ip), vehicle: saline with Tween-80) was 104 % of control, the T/C [2] was 121 % of control and the T/C [1] was 97 % of control.
`Cc1cccc(C)c1NC(=O)C1C(=O)C(=O)N(c2c(C)cccc2C)C1=O` (configuration not stated) was tested, and the T/C (dose: 25.0 mg/kg/injection, schedule: Q04DX002 (ip), vehicle: saline with Tween-80) was 100 % of control, the T/C (dose: 50.0 mg/kg/injection, schedule: Q04DX002 (ip), vehicle: saline with Tween-80) was 101 % of control and the T/C [6] was 98 % of control and 100 % of control.
With `O=C1Nc2ccccc2C1(O)Cc1ccccn1` (configuration not stated) the T/C (dose: 25.0 mg/kg/injection, schedule: Q01DX009 (ip), vehicle: saline with Tween-80) was 105 % of control, the T/C [3] was 95 % of control and the T/C [4] was 107 % of control. For the same molecule, the T/C [5] was 103 % of control.
`O=C1C=C(O)CN1C(=O)c1ccc(Cl)cc1` was tested, and the T/C (dose: 50.0 mg/kg/injection, schedule: Q01DX009 (ip), vehicle: Klucel (hydroxypropylcellulose) (HPC)) was 98 % of control, the T/C (dose: 100.0 mg/kg/injection, schedule: Q01DX009 (ip), vehicle: Klucel (hydroxypropylcellulose) (HPC)) was 107 % of control and the T/C (dose: 200.0 mg/kg/injection, schedule: Q01DX009 (ip), vehicle: Klucel (hydroxypropylcellulose) (HPC)) was 107 % of control.
`C#CCCCOCOCCOC` was tested, and the T/C (dose: 60.0 mg/kg/injection, schedule: Q01DX005 (ip), vehicle: saline) was 101 % of control and the T/C (dose: 120.0 mg/kg/injection, schedule: Q01DX005 (ip), vehicle: saline) was 101 % of control.
